Experimental data as given in ChEMBL document CHEMBL1134352, “Perspectives in animal health: old targets and new opportunities” (J Med Chem, 2001).
Converted amounts (≈) assume the structure as drawn. Values belong to the compound of their own block, whether it stands above or below them.

Experiments:
[1] = Acute toxicity in mice was determined; format: organism-based; settings: mouse, in vivo
Canis familiaris [2] = species on record: Canis familiaris; assay: Flea efficacy in dog; format: functional, Canis lupus familiaris
[3] = Lethal dose in dog was determined; format: toxicity, organism-based, Canis lupus familiaris; settings: in vivo
[4] = Lethal dose in mouse was determined; format: toxicity, organism-based; settings: in vivo
[5] = biological target: AF2 neuropeptide receptor; assay: Compound was evaluated for inhibition of binding to Ascaris suum AF2 neuropeptide receptor
Mus musculus = assay: Lethality in mouse, by administering the compound at 200 mg/kg; decreased toxicity; format: functional, organism-based; set-up: dose 200 mg/kg
Felis catus = assay: Percent reduction of fleas on cats by topical application for 1 week; format: functional
[6] = Oral bioavailability in dog; format: ADME, organism-based, Canis lupus familiaris; settings: in vivo
Canis familiaris [7] = species on record: Canis familiaris; assay: Minimum dose that cause toxicity in dog; format: functional, Canis lupus familiaris
Canis familiaris [8] = assay: In vivo reduction of flea infestation was determined after an oral administration of 15 mg/kg in dog challenged with 100 fleas at day 0; format: functional, Canis lupus familiaris
Canis familiaris [9] = assay: In vivo reduction of flea infestation was determined after an oral administration of 15 mg/kg in dog challenged with 100 fleas at day 4; format: functional, Canis lupus familiaris
Canis familiaris [10] = assay: In vivo reduction of flea infestation was determined after an oral administration of 15 mg/kg in dog challenged with 100 fleas at day 6; format: functional, Canis lupus familiaris
Canis familiaris [11] = assay: In vivo reduction of flea infestation was determined after an oral administration of 15 mg/kg in dog challenged with 100 fleas at day 8; format: functional, Canis lupus familiaris
[12] = Lethal concentration of compound was determined against fleas; settings: pulicinae
Canis familiaris [13] = species on record: Canis familiaris; assay: Flea efficacy in dog
Equus caballus = assay: Compound was evaluated for gastric acid suppression on intravenous administration of a single dose up to 7 hr; format: functional, Stomach

Structure (SMILES): CO[C@H]1C[C@H](O[C@H]2[C@H](C)O[C@@H](OC3/C(C)=C/CC4C[C@@H](C[C@]5(C=C[C@H](C)[C@@H](C(C)C)O5)O4)OC(=O)[C@@H]4C=C(C)[C@@H](O)[C@H]5OC/C(=C\C=C\[C@@H]3C)[C@]54O)C[C@@H]2OC)O[C@@H](C)[C@@H]1O (some centres not stated)
LD50 [1]: 160 mg/kg

Structure (SMILES): C=C(C)[C@H]1C(=O)c2c3c(cc4c5c(n1c24)[C@@]1(C)C(CC[C@H]2[C@](C)(/C=C/C=C(\C)C(=O)N(C)CC)[C@@H](O)CC[C@@]21C)C5)C1=CC(C)(C)OC(C)(C)C1[C@@H]3O (some centres not stated)
Efficacy (Canis familiaris [2]): 0.1 µg/mL

Structure (SMILES): CN1C(=O)[C@]23CC4CC(C)(C)[C@@]5(C[C@@]41CN2CC[C@@]3(C)O)C(=O)Nc1c5ccc2c1OC=CC(C)(C)O2 (some centres not stated)
LD50 [3]: 0.5 mg/kg | LD50 [4]: < 15 mg/kg

IC50 [5]: 3 µM
Structure (SMILES): N=c1sc(-c2ccccn2)nn1-c1c(Cl)cc(Cl)cc1Cl

IC50 [5]: 0.01 µM
Structure (SMILES): N#Cc1ccnc(-c2nn(-c3c(Cl)cc(C(F)(F)F)cc3Cl)c(=N)s2)c1

Structure (SMILES): CC[C@@]12C(=O)N(C)[C@@]3(CCC(C)(C)[C@]4(CNc5c4ccc4c5OC=CC(C)(C)O4)C3)CN1CC[C@@]2(C)O
Lethality (Mus musculus): decreased toxicity

Structure (SMILES): C/C=C(\C)C(=O)O[C@H]1C[C@@H](OC(C)=O)[C@@]2(C(=O)OC)CO[C@H]3[C@@H](O)[C@@](C)([C@]45O[C@@]4(C)[C@@H]4C[C@H]5O[C@@H]5OC=C[C@@]54O)[C@H]4[C@]1(CO[C@]4(O)C(=O)OC)[C@@H]32 [AZADIRACHTIN A]
Reduction (Felis catus): 53%

bioavailability [6]: ~90%
Structure (SMILES): CC(C(=O)O)c1ccc2c(c1)[nH]c1ccc(Cl)cc12 (configuration not stated) [CARPROFEN]

Structure (SMILES): C=C(C)[C@H]1C(=O)c2c3c(cc4c5c(n1c24)[C@@]1(C)C(CC[C@H]2[C@](C)(/C=C/C=C(\C)C(=O)O)[C@@H](O)CC[C@@]21C)C5)C1=CC(C)(C)OC(C)(C)C1[C@@H]3O (some centres not stated) [NOD ACID A]
Dose (Canis familiaris [7]): 0.006 mg/kg | Efficacy (Canis familiaris [8]): 99% | Efficacy (Canis familiaris [9]): 97% | Efficacy (Canis familiaris [10]): 51% | Efficacy (Canis familiaris [11]): 0% | LC50 [12]: 0.68 µg/mL (≈ 1 µM)

Structure (SMILES): C=C(C)[C@H]1C(=O)c2c3c(cc4c5c(n1c24)[C@@]1(C)C(CC[C@H]2[C@](C)(/C=C/C=C(\C)C(=O)N4CCN(S(C)(=O)=O)CC4)[C@@H](O)CC[C@@]21C)C5)C1=CC(C)(C)OC(C)(C)C1[C@@H]3O (some centres not stated) [NODULISPORAMIDE]
Efficacy (Canis familiaris [13]): 0.01 µg/mL

Structure (SMILES): COc1ccc2[nH]c([S+]([O-])Cc3ncc(C)c(OC)c3C)nc2c1 (configuration not stated) [OMEPRAZOLE]
Inhibition (Equus caballus): >90%
